The text below walks through data of patent publication US9328138B2 (priority 2011, dated 2016).

Experiment [1] deals with HCV NS3 protease genotype 3a (3A-1) (Hepatitis C virus genotype 3a, UniProt Q81258). The experiment in a line: HCV NS3 protease time-resolved fluorescence (TRF) assay, genotype 3a. Type of experiment: biochemical. The following applies: Ki 3a. The method, boiled down: (§1)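 Time-resolved fluorescence, ex 340/em 615 nm, 400 μs delay; IC50 by four-parameter fit. Enzyme preincubated with compound 10 min, then TRF substrate 25 nM final added and reaction run 6 h at RT. Buffer HEPES pH 7.5 with NaCl, glycerol, Triton X-100, DTT, PEG 8000.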

Experiment [2] concerns the target T1, HCV genotype 1b (BK) NS3 modified enzyme with a R155K mutation (Hepatitis C virus genotype 1b, UniProt P26663, R1181K).
T1 construct: HCV genotype 1b (BK) NS3 modified enzyme
The experiment in a line: HCV NS3 protease time-resolved fluorescence (TRF) assay, genotype 1b R155K. Format: biochemical. The conditions noted are these: Ki 1b R155K, genotype 1b (BK) NS3 R155K; single value. The method, boiled down:
as §1

What is called Ki is the dissociation constant of the complex between target and ligand, obtained from inhibition or displacement. For the compound `C=C[C@@H]1C[C@]1(NC(=O)[C@@H]1C[C@@H]2CN1C(=O)[C@H](C(C)(C)C)NC(=O)O[C@@H]1C[C@H]1CCCCCc1c(nc3cc(F)ccc3c1OCCCN1CCCC1)O2)C(=O)NS(=O)(=O)C1(C)CC1` [Example 151, (1aR,5S,8S,10R,22aR)-5-tert-butyl-N-[(1R,2S)-2-ethenyl-1-{[(1-methylcyclopropyl)sulfonyl]carbamoyl}cyclopropyl]-14-fluoro-3,6-dioxo-17-[3-(pyrrolidin-1-yl)propoxy]-1,1a,3,4,5,6,9,10,18, 19,20,21,22,22a-tetradecahydro-8H-7,10-methanocyclopropa[18,19][1,10,3,6] dioxadiazacyclononadecino[11,12-b] quinoline-8-carboxamide], the values for the inhibitory constant (Ki) in experiment [1] and in experiment [2] were 620 pM and 74 pM, respectively.
In the case of `C=C[C@@H]1C[C@]1(NC(=O)[C@@H]1C[C@@H]2CN1C(=O)[C@H](C1CCCC1)NC(=O)O[C@@H]1C[C@H]1CCCCCc1c(nc3ccccc3c1OC)O2)C(=O)NS(=O)(=O)C1CC1` [Example 28, (1aR,5S,8S,10R,22aR)-5-cyclo pentyl-N-{(1R,2S)-1-[(cyclopropylsulfonyl)carbamoyl]-2-ethenylcyclopropyl}-17-methoxy-3,6-dioxo-1,1a, 3,4,5,6,9,10,18,19,20,21,22,22a-tetradecahydro-8H-7,10-methanocyclopropa[18,19][1,10,3,6] dioxadiazacyclononadecino[11,12-b]quinoline-8-carboxamide], the Ki is 35000 pM in experiment [1] and 700 pM in experiment [2].
On the same counts, the results for `C=C[C@@H]1C[C@]1(NC(=O)[C@@H]1C[C@@H]2CN1C(=O)[C@H](C1CCCC1)NC(=O)O[C@@H]1CCC[C@H]1CC/C=C/Cc1c(nc3ccccc3c1OCCN1CCCC1=O)O2)C(=O)NS(=O)(=O)C1CC1` [Example 79, (3aR,7S,10S,12R,21E,24aS)-7-cyclo pentyl-N-{(1R,2S)-1-[(cyclopropylsulfonyl)carbamoyl]-2-ethenylcyclopropyl}-5,8-dioxo-19-[2-(2-oxopyrrolidin-1-yl)ethoxy]-1,2,3,3a,5,6,7,8,11,12,20,23,24,24a-tetradeca hydro-10H-9,12-methanocyclopenta[18,19][1,10,3,6] dioxadiaza cyclononadecino[11,12-b]quinoline-10-carboxamide] are 1800 pM and 60 pM.
The matching figures for `C=C[C@@H]1C[C@]1(NC(=O)[C@@H]1C[C@@H]2CN1C(=O)[C@H](C(C)(C)C)NC(=O)O[C@@H]1C[C@H]1CCCCCc1c(nc3ccccc3c1OC1CCN(C)CC1)O2)C(=O)NS(=O)(=O)C1(C)CC1` [Example 210, (1aR,5S,8S,10R,22aR)-5-tert-butyl-N-[(1R,2S)-2-ethenyl-1-{[(1-methylcyclopropyl)sulfonyl]carbamoyl}cyclopropyl]-17-[(1-methylpiperidin-4-yl)oxy]-3,6-dioxo-1,1a,3,4,5,6,9,10,18,19,20,21,22,22a-tetradecahydro-8H-7,10-methanocyclopropa[18,19][1,10,3,6]dioxadiazacyclononadecino[11,12-b]quinoline-8-carboxamide]: 290 pM and 46 pM.
The matching figures for `COc1c2c(nc3ccccc13)O[C@@H]1C[C@H]3C(=O)N[C@]4(C(=O)NS(=O)(=O)C5(C)CC5)C[C@H]4/C=C\CCCCC[C@H](NC(=O)O[C@@H]4C[C@H]4CCCCC2)C(=O)N3C1` [Example 305, (1aR,5S,11Z,12aS,13aR,16S,19R,31aR)-26-methoxy-N-[(1-methylcyclopropyl)sulfonyl]-3,15,33-trioxo-1,1a,3,4,5,6,7,8,9,10,12a,13,15,16,18,19,27,28,29,30,31,31a-docosahydro-5,17:16,19-dimethanodicyclopropa[12,13:28,29][1,20,3,14,17]dioxatriazacyclononacosino[21,22-b]quinoline-13a(14H)-carboxamide]: 2000 pM and 66 pM.
`C=C[C@@H]1C[C@]1(NC(=O)[C@@H]1C[C@@H]2CN1C(=O)[C@H](C1CCCC1)NC(=O)O[C@@H]1CCC[C@H]1CCC/C=C/Cc1c(nc3ccccc3c1O)O2)C(=O)NS(=O)(=O)C1CC1` [Example 18]: the Ki was 12000 pM in experiment [1] and 790 pM in experiment [2].
With `C=C[C@@H]1C[C@]1(NC(=O)[C@@H]1C[C@@H]2CN1C(=O)[C@H](C(C)C)NC(=O)O[C@@H]1C[C@H]1CCCCCc1c(nc3ccccc3c1OCCN1CCOCC1)O2)C(=O)NS(=O)(=O)C1(C)CC1` [Example 124, (1aR,5S,8S,10R,22aR)-N-[(1R,2S)-2-ethenyl-1-{[(1-methylcyclopropyl)sulfonyl]carbamoyl}cyclopropyl]-17-[2-(morpholin-4-yl)ethoxy]-3,6-dioxo-5-(propan-2-yl)-1,1a,3,4,5,6,9,10,18,19,20,21,22,22a-tetradeca hydro-8H-7,10-methano cyclopropa[18,19][1,10,3,6] dioxadiazacyclonona decino[11,12-b]quinoline-8-carboxamide], the inhibition constant Ki came out at 10000 pM in experiment [1] and 790 pM in experiment [2].
On the same counts, the results for `CC1(S(=O)(=O)NC(=O)[C@@]23C[C@H]2/C=C\CCCCC[C@@H]2NC(=O)O[C@@H]4C[C@H]4CCC/C=C/c4c(nc5ccccc5c4OCCN4CCCCC4)O[C@@H]4C[C@@H](C(=O)N3)N(C4)C2=O)CC1` [Example 296, (1aR,5S,11Z,12aS,13aR,16S,19R,27E,31aR)—N-[(1-methylcyclopropyl)sulfonyl]-3,15,33-trioxo-26-[2-(piperidin-1-yl)ethoxy]-1,1a,3,4,5,6,7,8,9,10,12a,13,15,16,18,19,29,30,31,31a-icosahydro-5,17:16,19-dimethanodicyclopropa[12,13:28,29][1,20,3,14,17]dioxatriazacyclononacosino[21,22-b]quinoline-13a(14H)-carboxamide] are 6000 pM and 270 pM.
On the same counts, the results for `C=C[C@@H]1C[C@]1(NC(=O)[C@@H]1C[C@@H]2CN1C(=O)[C@H](C(C)(C)C)NC(=O)O[C@@H]1C[C@H]1CCCCCc1c(nc3ccccc3c1OCCCN1CCCCC1)O2)C(=O)NS(=O)(=O)C1(C)CC1` [Example 115, (1aR,5S,8S,10R,22aR)-5-tert-butyl-N-[(1R,2S)-2-ethenyl-1-{[(1-methylcyclopropyl)sulfonyl]carbamoyl}cyclopropyl]-3,6-dioxo-17-[3-(piperidin-1-yl)propoxy]-1,1a,3,4,5,6,9,10,18,19,20,21,22,22a-tetradeca hydro-8H-7,10-methano cyclopropa[18,19][1,10,3,6] dioxadiazacyclononadecino [11,12-b]quinoline-8-carboxamide] are 250 pM and 57 pM.
On to `C=CC1C[C@]1(NC(=O)[C@@H]1C[C@@H]2CN1C(=O)[C@H](C(C)(C)C)NC(=O)O[C@@H]1CCC[C@H]1CCCCCc1c(nc3ccccc3c1OCCN1CCOCC1)O2)C(=O)NS(=O)(=O)C1(COCCOC)CC1` (stereo partly drawn) [Example 65, (3aR,7S,10S,12R, 24aR)-7-tert-butyl-N-{(1R,2S)-2-ethenyl-1-[({1-[(2-methoxyethoxy)methyl]cyclopropyl}sulfonyl)carbamoyl]cyclopropyl}-19-[2-(morpholin-4-yl)ethoxy]-5,8-dioxo-1,2,3,3a,5,6,7,8,11, 12,20,21,22,23,24, 24a-hexadecahydro-10H-9,12-methanocyclopenta [18,19][1,10,3,6] dioxadiaza-cyclononadecino [11,12-b]quinoline-10-carboxamide], for which the Ki was determined as 16000 pM in experiment [1] and 560 pM in experiment [2].
